Laboratory results from ChEMBL document CHEMBL1146082, “Development of a structural model for NF-kappaB inhibition of sesquiterpene lactones using self-organizing neural networks” (J Med Chem, 2006).

What follows are molecules tested against Transcription factor p65 (Homo sapiens) (UniProt Q04206) (assay: Inhibition of NF-kappaB DNA binding by EMSA).
Transcription factor p65 (Homo sapiens), sequence (Q04206 whole entry): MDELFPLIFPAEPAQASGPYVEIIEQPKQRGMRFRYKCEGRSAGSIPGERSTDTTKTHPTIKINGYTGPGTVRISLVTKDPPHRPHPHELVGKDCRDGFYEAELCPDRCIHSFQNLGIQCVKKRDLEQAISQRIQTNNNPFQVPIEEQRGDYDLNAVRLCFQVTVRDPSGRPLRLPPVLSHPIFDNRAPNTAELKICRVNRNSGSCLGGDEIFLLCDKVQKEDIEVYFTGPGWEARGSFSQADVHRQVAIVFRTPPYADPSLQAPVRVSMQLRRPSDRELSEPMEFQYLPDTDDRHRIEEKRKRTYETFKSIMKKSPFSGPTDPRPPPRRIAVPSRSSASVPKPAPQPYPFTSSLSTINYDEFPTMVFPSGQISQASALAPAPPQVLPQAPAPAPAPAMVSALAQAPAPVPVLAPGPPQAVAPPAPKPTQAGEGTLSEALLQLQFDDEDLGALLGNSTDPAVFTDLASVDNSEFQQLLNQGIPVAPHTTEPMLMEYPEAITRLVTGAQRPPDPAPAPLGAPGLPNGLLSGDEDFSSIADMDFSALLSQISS

IC100 [µM]	Structure (SMILES)
100	C=C1C(=O)O[C@]23C[C@H]1CCC(COC(C)=O)=C2C(=O)C=C3C
10	C=C1C(=O)O[C@@H]2/C=C(\C)CC/C=C(/C)CC[C@@]12O
20	C=C1C(=O)O[C@@H]2/C=C(/CO)[C@@]3(O)C[C@@H](O)[C@@](C)(C[C@@H](OC(=O)/C(C)=C\C)[C@@H]12)O3
200	C=C1[C@@H]2[C@H]3OC(=O)C(=C)[C@@H]3CCC(=C)[C@@H]2C[C@@H]1OC(=O)C=C(C)C
10	C=C(C)C(=O)O[C@@H]1/C=C(\C=O)CCCC(=C)[C@H](O)[C@H]2OC(=O)C(=C)[C@@H]21
50	C=C1C(=O)O[C@@H]2C[C@@]3(C)[C@H](O)CC=C(COC(=O)C(C)C)[C@@H]3C[C@H]12
50	C=C1C(=O)O[C@]23C[C@H]1CCC(CO)=C2C(=O)C=C3C
50	C=C1C(=O)O[C@@H]2C[C@H](C)[C@@H]3CC(=O)C(C)=C3C[C@H]12
10	C=C1C(=O)O[C@H]2[C@H]1[C@@H](OC(=O)/C(C)=C/C)C/C(C)=C/C(=O)/C=C(/C)[C@@H]2O
50	C=C(C)C(=O)OC/C1=C\C[C@@H]2C(=C)C(=O)O[C@H]2C/C(CO)=C/CC1
20	C=C1C(=O)O[C@@H]2C[C@H](C)C3=C(C[C@H]12)[C@@H](C)CC3=O
5	C=C(C)C(=O)O[C@@H]1/C=C(/C=O)CCC[C@@]2(CO2)[C@H](O)[C@H]2OC(=O)C(=C)[C@@H]21
5	C=C(C)C(=O)O[C@@H]1/C=C(\C=O)CCC[C@@]2(CO2)[C@H](O)[C@H]2OC(=O)C(=C)[C@@H]21
50	C=C1C[C@@H]2OC(=O)C(=C)[C@H]2[C@H](O)/C=C(\C)CCC1=O
10	C=C(C)C(=O)O[C@@H]1CC(C)=C2C(=O)C=C(C)[C@@H]2[C@H]2OC(=O)C(=C)[C@@H]21
200	C=C1[C@@H]2[C@H]3OC(=O)C(=C)[C@@H]3CC[C@](C)(O)[C@@H]2C[C@@H]1O
300	C=C1C(=O)O[C@@H]2[C@H]3C(C)=CC[C@H](O)[C@]3(C)CC[C@@H]12
25	C=C1C(=O)C[C@H]2C(=C)C(=O)O[C@@H]2/C=C(\COC(=O)C(C)C)CC[C@H]1OC
100	C=C1C(=O)O[C@@H]2C[C@@]3(C)[C@H](OC(C)=O)CC[C@](O)(COC(=O)C(C)C)[C@@H]3C[C@H]12
50	C=C1C(=O)O[C@H]2C/C(CO)=C/CC/C(COC(=O)C(C)C)=C/C[C@H]12
100	CC[C@@H](C)[C@@]1(O)O[C@H]2C[C@@]3(C)OC(=CC3=O)/C(CO)=C\[C@H]3OC(=O)[C@@]1(C)C23 (stereo partly specified)

IC100 [µM]	Structure (SMILES)
100	C=C1C(=O)O[C@@H]2C[C@@]3(C)CC(=O)C(OC(C)=O)=C(C)C3C[C@H]12 (stereo partly specified)
10	C=C(C)C(=O)O[C@@H]1C[C@@]2(C)OC(=CC2=O)/C(C)=C\[C@H]2OC(=O)C(=C)[C@@H]21
200	C=C1C(=O)O[C@@H]2C[C@H](C)[C@@]3(O)CC[C@@](C)(C[C@@H](OC(=O)C(C)C)[C@@H]12)O3
200	C=C1C(=O)O[C@@H]2C[C@@]3(C)[C@H](O)CC[C@](O)(COC(=O)C(C)C)[C@@H]3C[C@H]12
20	C=C1C(=O)O[C@@H]2[C@H]3C(C)=C(Cl)C(=O)C3=C(C)CC[C@@H]12
10	C=C(C)C(=O)O[C@H]1[C@H]2C(=C)C(=O)O[C@@H]2[C@@H]2O[C@]2(C)CC/C=C(/C=O)[C@@H]1O
100	C=C1C(=O)O[C@@H]2[C@H]3C(C)=CC[C@@H](O)[C@]3(C)CC[C@@H]12
10	C=C(C)C(=O)O[C@H]1C/C(C)=C/C(=O)/C=C(/C)[C@H](O)[C@H]2OC(=O)C(=C)[C@@H]21
50	C=C1C(=O)O[C@@H]2[C@H]3C(C)=CC(=O)C3=C(C)CC[C@@H]12
10	C=C1C(=O)O[C@H]2[C@H]1[C@@H](OC(=O)/C(C)=C/C)C/C(C)=C\[C@@]1(OC)C=C(C)[C@@H]2O1
20	C=C1C(=O)O[C@@H]2C3=C(C(=O)C[C@@H]3C)[C@@H](C)CC[C@@H]12
200	C=C1[C@H](O)C[C@@H](O)[C@]2(C)CC[C@H]3C(=C)C(=O)O[C@@H]3[C@@H]12
5	C=C(C)C(=O)O[C@H]1[C@H]2C(=C)C(=O)O[C@@H]2[C@@H](O)[C@@]2(CC/C=C(/C=O)[C@@H]1OC(C)=O)CO2
200	C=C1C(=O)O[C@H]2/C=C(\C)[C@@H](O)CC/C(C)=C/[C@@H](O)[C@H]12
50	C=C(C)C(=O)O[C@@H]1C[C@]2(C)CC[C@@](O)(O2)/C(C)=C\[C@H]2OC(=O)C(=C)[C@@H]21
10	C=C1C(=O)O[C@H]2C[C@]3(C)O[C@@H]3C[C@@H](OC(C)=O)C3=C[C@@H](OC3=O)[C@H]12
20	C=C1C(=O)O[C@@H]2[C@H]3C(C)=CC[C@H]3[C@](C)(O)C[C@H](OC(C)=O)[C@@H]12
100	C=C1C(=O)O[C@@H]2/C=C(\COC(=O)C(C)C)CC/C=C(\CO)[C@H](O)C[C@@H]12
200	CC(=O)O[C@H]1[C@@H]2[C@H](C)C(=O)O[C@@H]2C[C@@H](C)[C@@H]2C=CC(=O)[C@]21C
50	C=C1C(=O)O[C@H]2C/C(CO)=C/CC/C(COC(=O)C(C)C(C)O)=C/C[C@H]12 (stereo partly specified)
5	C=C(C)C(=O)O[C@H]1C[C@@]2(C)OC(=CC2=O)C(=C)[C@@H](Cl)[C@H]2OC(=O)C(=C)[C@@H]21

Continued, molecule first:

Structure (SMILES)	IC100 [µM]
C=C(C)C(=O)O[C@H]1[C@H]2C(=C)C(=O)O[C@@H]2[C@@H](O)C(=C)CC/C=C(/C=O)[C@@H]1OC	50
C=C(C)C(=O)O[C@H]1[C@H]2C(=C)C(=O)O[C@@H]2[C@@H](O)C(=C)CC/C=C(/C=O)[C@@H]1OC(C)=O	10
C=C(C)C(=O)O[C@@H]1[C@@H]2C(=C)C(=O)O[C@@H]2C[C@@H](C)[C@@H]2C=CC(=O)[C@@]12C	5
C=C1C(=O)O[C@H]2C3=C(C(=O)C[C@@H]3C)[C@@H](C)CC[C@@H]12	20
C=C1C(=O)O[C@@H]2C3O[C@]3(C)CC/C=C(\C)CC[C@@H]12 (stereo partly specified)	20
C=C1C(=O)O[C@@H]2[C@@H]3[C@@](C)(CC[C@@H]12)[C@@H](O)C[C@H]1O[C@@]31C	200
C=C1C(=O)O[C@H]2C/C(CO)=C/CC/C(COC(=O)C(C)(C)O)=C/C[C@H]12	50
C=C1C(=O)O[C@@H]2/C=C(\C)[C@H](OC(C)=O)C/C=C(/C)CC[C@@H]12	50
C=C1C(=O)O[C@H]2CC(=C)[C@H](O)CC/C(C)=C/[C@@H](O)[C@H]12	50
C[C@@H]1C[C@H]2OC(=O)[C@@H](C)[C@H]2[C@H](O)[C@]2(C)C(=O)C=C[C@@H]12	200
C=C1[C@H](O)C[C@H](O)[C@]2(C)CC[C@H]3C(=C)C(=O)O[C@@H]3[C@@H]12	100
C=C1C(=O)O[C@@H]2C[C@@H](C)[C@@H]3[C@H](OCC)CC(=O)[C@@]3(C)[C@H](OC(C)=O)[C@H]12	50
C=C1C(=O)O[C@@H]2/C=C(/C)C3=CC(=O)[C@@](C)(C[C@@H](OC(=O)/C(C)=C/C)[C@@H]12)O3	5
C[C@H]1C(=O)O[C@H]2C/C(CO)=C/CC/C(CO)=C/C[C@@H]21	300
C=C1C(=O)O[C@@H]2C[C@@H](C)[C@@H]3[C@@H](OC(C)=O)C[C@@H](O)[C@@]3(C)[C@@H](O)[C@H]12	200
C=C(C)C(=O)O[C@@H]1C[C@](C)(O)[C@@H]2C(=O)C=C(C)[C@@H]2[C@H]2OC(=O)C(=C)[C@@H]21	50
C=C1C(=O)O[C@@H]2C[C@@H](C)[C@@H]3C=CC(=O)[C@@]3(C)[C@@H](OC(=O)C(C)C)[C@H]12	20
C=C[C@]1(C)CC[C@H]2C(=C)C(=O)O[C@@H]2[C@H]1C(=C)C	100
C=C1C(=O)O[C@H]2C[C@H](C)C3=C(C[C@H]12)[C@@H](C)CC3=O	20
C=C(C)C(=O)O[C@@H]1C[C@]2(C)CC[C@@](OC)(O2)/C(C)=C\[C@H]2OC(=O)C(=C)[C@@H]21	200

Structure (SMILES)	IC100 [µM]
C=C1C(=O)O[C@H]2C[C@@H](C)[C@@H]3C=CC(=O)[C@@]3(C)[C@H](O)[C@H]12	20
C=C(C)C(=O)O[C@H]1C/C(C)=C\[C@@]2(OC)C=C(C)[C@H](O2)[C@H]2OC(=O)C(=C)[C@@H]21	10
C=C(CO)C(=O)OC/C1=C\C[C@@H]2C(=C)C(=O)O[C@H]2C/C(CO)=C/CC1	20
C=C1CCC=C(C)[C@@]2(O)[C@H](OC(=O)[C@]3(C)O[C@@H]3C)[C@@H]3[C@@H](OC(=O)[C@@H]3C)[C@H]12	200
C=C1C(=O)O[C@@H]2/C=C(/CO)C3=CC(=O)[C@@](C)(C[C@@H](OC(=O)/C(C)=C/C)[C@@H]12)O3	5
C=C1C(=O)O[C@H]2[C@H]1CCC(C)=C1C(=O)[C@H]3O[C@@]3(C)[C@@H]12	5
C=C1C(=O)C=C2[C@H]1C[C@@H]1C(=C)C(=O)O[C@@H]1C[C@@H]2C	10
C=C(C)C(=O)O[C@H]1C[C@@]2(C)OC(=CC2=O)/C(CO)=C\[C@H]2OC(=O)C(=C)[C@H]12	20
C=C(C)C(=O)O[C@H]1[C@H]2C(=C)C(=O)O[C@@H]2/C=C(\C)CC/C=C(/C=O)[C@@H]1O	10
C=C(C)C(=O)O[C@@H]1/C=C(/C=O)CCCC(=C)[C@H](O)[C@H]2OC(=O)C(=C)[C@@H]21	5
C=C1C(=O)O[C@@H]2/C=C(/C)[C@]3(O)O[C@](C)(C[C@@H](OC(=O)/C(C)=C\C)[C@@H]12)C[C@@H]3O	50
C=C(C)C(=O)O[C@H]1C[C@@]2(C)OC(=CC2=O)C(=C)[C@@H](O)[C@H]2OC(=O)C(=C)[C@@H]21	10
C=C1C(=O)O[C@H]2/C=C(\C)CC/C=C(\C)[C@@H](OC(=O)[C@@]3(C)O[C@H]3C)[C@H](O)[C@@H]12	50
C=C1C(=O)O[C@@H]2/C=C(/CO)[C@@]3(O)CC[C@@](C)(C[C@@H](OC(=O)/C(C)=C\C)[C@@H]12)O3	20
C=C(C)C(=O)O[C@H]1[C@@H]2[C@H](C)C(=O)O[C@@H]2C[C@@H](C)[C@@H]2C=CC(=O)[C@]21C	100
C=C1C(=O)O[C@@H]2/C=C(\C)CC/C=C(\C)[C@@H](OC(C)=O)C[C@@H]12	200
C=C1C(=O)O[C@@H]2C[C@@H](C)[C@@H]3C=CC(=O)[C@@]3(C)[C@H](OC(=O)C(C)CC)[C@H]12 (stereo partly specified)	10
C=C(C)C(=O)O[C@@H]1C[C@@](C)(O)[C@@H]2C(=O)C=C(C)[C@@H]2[C@H]2OC(=O)C(=C)[C@@H]21	20
C/C=C(\C)C(=O)O[C@H]1[C@@H]2[C@H](C)C(=O)O[C@@H]2C[C@@H](C)[C@@H]2C=CC(=O)[C@]21C	100
